{
  "source": "patent US6338963B1",
  "about": "“Use of carbon monoxide dependent guanylyl cyclase modifiers to stimulate neuritogenesis” (NeoTherapeutics, Inc., priority 1994, dated 2002)",
  "key": {"[1]": {"system": "NGF", "experiment": "Two-site ELISA of growth factor protein in rat brain and spinal cord: NGF", "assay_type": "in vivo, F344 rats", "experimental": "Adult female F344 rats were given either AIT-082 (doses: 30 mg/kg/day or a higher dose of 30 mg/ml (˜3,000 mg/kg/day); n=6 rats per group) in their drinking water, or water alone, as a vehicle for control. The duration of the study was seven days, at which time the rats were anesthesized and perfused with ice-cold saline. The brains of the rats were rapidly removed. The brains were placed on a chilled glass plate and dissected into the following regions: basal forebrain, frontal cortex, parietal cortex, cerebellum, spinal cord, and hippocampal formation. Tissues were stored at −70° C. until assayed in a specific two-site ELISA for either NGF, BDNF, NT-3, or GNDF.\nThe results are shown in FIGS. 45 (BDNF), 46 (NT-3), 47 (GDNF) and 48 (NGF). For the results shown in FIGS. 45-48, animals were given only water (VEH, n=6) or water with AIT-082 at either 30 mg/kg/day (n=6) or 30 mg/ml (n=6) for seven days. The levels of each growth factor were determined in the frontal cortex (F. Cor.), parietal cortex (P.Cor.), hippocampal formation (Hipp.), basal forebrain (B.F.), cerebellum (Cer.), or spinal cord (Cord) using a specific two-site ELISA for each growth factor.\nAdult female rats were given AIT-082 (30 mg/kg/day) in their drinking water or drinking water alone (n=6 for each group) for seven days prior to receiving a bilateral fimbria fornix transection (FFT).\nThe results are shown in FIGS. 49 (BDNF), 50 (NT-3), 51 (GDNF) and 52 (NGF). […] Levels of the growth factor were determined in frontal cortex (F.Cor.), parietal cortex (P.Cor.), hippocampal formation (Hipp.), basal forebrain (B.F.), cerebellum (Cer.), or spinal cord (Cord) using a specific two-site ELISA for each growth factor. […]\nResults are shown in FIGS. 53 (BDNF), 54 (NT3), 55 (GDNF), and 56 (NGF). […] Levels of each growth factor were determined in frontal cortex (F.Cor.), parietal cortex (P. Cor.), hippocampal formation (Hipp.), basal forebrain (B.F.), cerebellum (Cer.) or spinal cord (Cord) using a specific two-site ELISA."}, "[2]": {"system": "C57BL/6 mice", "experiment": "Win-shift duration of memory trace, C57BL/6 mice", "assay_type": "in vivo", "settings": "for Correct (Mean score ± S.E.) / No. above chance/Total #: AIT-082 30 mg/kg", "experimental": "To determine the duration of the memory trace, subjects were administered drug or saline and 30 minutes (PHY) or 1 hour (AIT-082 or THA) later they were given a single reference run with the milk reward in both goal boxes. After the indicated inter-trial delay, subjects were returned to the start box and given the first test trial with the milk reward only in the goal box opposite to the one entered on the previous correct trial. The subjects were given 10 trials with the reward alternating only after correct responses.\nPrevious work has established that normal adult Swiss Webster mice have a memory trace duration of 60 seconds in the win-shift paradigm which may be increased by the administration of AIT-082."}, "[3]": {"system": "cultured neurons from rat cerebral cortex", "experiment": "NMDA-induced toxicity in cultured rat cortical neurons, astrocyte conditioned medium", "assay_type": "cell-based", "settings": "CM from astrocytes treated 6 hours with AIT-082", "experimental": "In these experiments, cultured neurons were prepared from rat cerebral cortex. In these cultures the NMDA pulse (100 μM for 10 min) provoked about 80% neuronal death (measured by Trypan blue cell staining or LDH activity). Separately, cultured astrocytes were treated for 6 hours with AIT-082. Then, the medium containing the drug was replaced with fresh medium without the drug and the astrocyte cultures were maintained in this medium for the next 24 hours. This medium represented the CM and was added to neurons soon after the toxic pulse with NMDA. The addition of CM partly counteracted the toxic effects caused by NMDA, reducing the neuronal damage by about 50%. If the medium was boiled for 20 min at 100° C. prior to addition to NMDA-damaged neurons, it completely lost the protective activity. […] To verify whether the neuroprotection caused by AIT-082 was ascribable to the production of TGFβ2 or NGF, antibodies to TGFβ2 or to NGF (100 ng/ml) were added together with CM.\nConversely, when DPCPX (100 nm) was added to astrocyte cultures together with AIT-082, the neuroprotective effect of the resulting CM deriving from the culture of the astrocytes with AIT-082 was reduced by only 20%, as compared to the neuroprotective effect of CM derived from astrocytes exposed to AIT-082 alone (assumed as equal to 100%)."}, "[4]": {"system": "adenosine receptor", "experiment": "Receptor ligand binding in vitro, adenosine", "experimental": "AIT-082 was evaluated for its ability to inhibit ligand binding to 38 isolated receptors."}, "[5]": {"system": "38 isolated receptors", "experiment": "Receptor ligand binding in vitro (Nova Labs)"}, "[6]": {"system": "mice", "experiment": "Prophylaxis of age-induced memory deficit (win-shift, monthly)", "assay_type": "in vivo", "settings": "30 mg/kg/day in drinking water from 14 months of age", "experimental": "It has been observed that age-induced memory deficits typically begin to manifest themselves in mice between 14 and 16 months of age. Therefore, the treatment of mice was begun at 14 months of age with AIT-082 (30 mg/kg/day) in their drinking water. The animals were measured monthly for their memory using the win-shift foraging tests previously described."}, "[7]": {"system": "NT-3", "experiment": "Summary of effects on growth factor mRNA and protein (Table R): NT-3", "design": "key: ± = mRNA; + = protein; nt = not tested", "excerpt": "The constellation of effects of AIT-082 on production of mRNA encoding growth factors and on production of growth factor proteins is shown in Table R. The results summarized in […] show both transcriptional and translational effects on growth factors that are in the categories of neurotrophins, pleiotrophins, members of the S100 family of EF hand calcium binding proteins, and members of the TGFβ superfamily. As indicated, effects have been shown at both the mRNA (transcriptional) and protein (translational) levels."}},
  "data": [
    {"smiles": "O=C(CCn1cnc2c(=O)[nH]cnc21)Nc1ccc(C(=O)O)cc1", "note": "[AIT-082, N-4-carboxyphenyl-3-(6-oxohydropurin-9-yl)propanamide]", "values": [
      {"measurement": "NGF protein levels", "setting": "[1]; FFT-lesioned rats, 30 mg/kg/day", "value": "No significant increases"},
      {"measurement": "NGF protein levels", "setting": "[1]; aged rats, 30 mg/kg/day 30 days, any brain region", "value": "no effect"},
      {"measurement": "NGF protein levels", "setting": "[1]; intact adult rats", "value": "No changes"},
      {"measurement": "duration of the memory trace", "setting": "[2]; AIT-082 30 mg/kg i.p., untreated 120 seconds", "value": "over 210 seconds"},
      {"measurement": "Correct (Mean score ± S.E.)", "setting": "[2]; inter-trial interval 180 sec", "value": "70 ± 15"},
      {"measurement": "No. above chance/Total #", "setting": "[2]; inter-trial interval 180 sec", "value": "4/6"},
      {"measurement": "Correct (Mean score ± S.E.)", "setting": "[2]; inter-trial interval 210 sec", "value": "78 ± 15"},
      {"measurement": "No. above chance/Total #", "setting": "[2]; inter-trial interval 210 sec", "value": "4/6"},
      {"measurement": "Correct (Mean score ± S.E.)", "setting": "[2]; inter-trial interval 240 sec", "value": "50 ± 6"},
      {"measurement": "No. above chance/Total #", "setting": "[2]; inter-trial interval 240 sec", "value": "0/6"},
      {"measurement": "Correct (Mean score ± S.E.)", "setting": "[2]; inter-trial interval 270 sec", "value": "50 ± 6"},
      {"measurement": "No. above chance/Total #", "setting": "[2]; inter-trial interval 270 sec", "value": "0/6"},
      {"measurement": "reduction of neuronal damage caused by NMDA", "setting": "[3]", "value": "about 50%"},
      {"measurement": "binding to the adenosine receptor", "setting": "[4]", "value": "does not bind"},
      {"measurement": "inhibition of ligand binding", "setting": "[5]", "value": "no activity"},
      {"measurement": "onset and severity of age-induced memory deficits", "setting": "[6]", "value": "delayed the onset and severity of memory deficits"},
      {"measurement": "NT-3, effect on mRNA/protein production", "setting": "[7]; Aged Brain", "value": "+"},
      {"measurement": "NT-3, effect on mRNA/protein production", "setting": "[7]; Cultured Cells", "value": "±"},
      {"measurement": "NT-3, effect on mRNA/protein production", "setting": "[7]; Lesioned Spinal Cord", "value": "±"},
      {"measurement": "NT-3, effect on mRNA/protein production", "setting": "[7]; Normal Brain", "value": "+"}
    ]}
  ]
}
